For the test, the system named is H1 human embryonic stem cells. The test is described as follows: Analogue screening in combination with only GDF-8, SOX17 (Example 21, Tables 18 and 19). Conditions: for Cell Number: Average Total Cell Number / Sox17 Expression: Average Total Intensity / Cell Number: % of positive control / Sox17 Expression: % of positive control: compound in combination with GDF8; for Cell Number: Average Total Cell Number / Sox17 Expression: Average Total Intensity: four assay plates; for Cell Number: % of positive control / Sox17 Expression: % of positive control: relative to Activin A/Wnt3a of the same plate; for Sox17 Expression, % of positive control: 2.5 μM compound with 200 ng/ml GDF-8, four days, Table 19 hits. Type of test: cell-based. Set-up: Sox17 Expression: % of positive control / Cell Number: % of positive control: tested at 2.5 µM. In short, it runs like this: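 H1 human ES cells treated four days with 200 ng/ml GDF-8 plus 2.5 μM compound (day 1, 0.5% FCS), GDF-8 alone in 2% FCS on day 3; triplicates. Fixed cells immunostained for SOX17 with Hoechst counterstain, imaged at 15 fields/well; total SOX17 intensity normalized to activin A/Wnt3a positive control.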

In the case of `O=C1CCN2CCN(CC2)Cc2cccc(c2)Nc2ncnc(n2)-c2ccnc(c2)NCCCN1` [Compound 13, 1,8,10,12,17,19,23,27,33-Nonaazapentacyclo[25.2.2.1˜3,7˜0.1˜9.13˜1˜14.18˜]tetratriaconta-3(34), 4,6,9(33), 10,12,14(32), 15,17-nonaen-24-one], the “Cell Number: Average Total Cell Number” value was 3123, the “Sox17 Expression: Average Total Intensity” value is recorded as 2.44E+07, the “Cell Number: % of positive control” value amounted to 20.8% and the “Sox17 Expression: % of positive control” value was determined as 7.1%.

Regarding `CCN1CC(=O)NCCCc2cc(ccn2)-c2ncnc(n2)Nc2cc(Cl)cc(c2)C1` [Compound 14, 10-Chloro-14-ethyl-3,5,7,14,17,22,27-heptaazatetracyclo[19.3.1.1˜2,6˜1˜8,12˜]heptacosa-1(25), 2(27), 3,5,8(26), 9,11,21,23-nonaen-16-one], the “Cell Number: Average Total Cell Number” value is 274, the “Sox17 Expression: Average Total Intensity” value is on record as 1.56E+05, the “Cell Number: % of positive control” value amounted to 2.0% and the “Sox17 Expression: % of positive control” value is given as 0.1%.

Regarding `CCN1CC(=O)NCCCc2cccc(c2)-c2ncnc(n2)Nc2cccc(c2)C1` [Compound 15, 14-Ethyl-3,5,7,14,17,27-hexaazatetracyclo[19.3.1.1˜2,6˜1-8.12˜]heptacosa-1(25), 2(27), 3,5,8(26), 9,11,21,23-nonaen-16-one], the “Cell Number: Average Total Cell Number” value is 4383, the “Sox17 Expression: Average Total Intensity” value is recorded as 3.57E+07, the “Cell Number: % of positive control” value was determined as 28.7% and the “Sox17 Expression: % of positive control” value amounted to 10.6%.

On to `O=C1NCCCc2cncc(c2)-c2ncnc(n2)Nc2cccc(c2)CN2CCCC1C2` (stereo not shown) [Compound 17, 3,5,7,14,20,26,31-Heptaazapentacyclo[22.3.1.1-2,6˜1˜8,12˜1˜14,18˜]hentriaconta-1(28), 2(31), 3,5,8(30), 9,11,24,26-nonaen-19-one], for which the “Sox17 Expression, % of positive control” value is reported as 23.6 % of positive control.

Regarding `O=C1NCCCc2cncc(c2)-c2ncnc(n2)Nc2cccc(c2)CN2CCC[C@@H]12` [Compound 18, (18S)-3,5,7,14,20,26,30-Heptaazapentacyclo[22.3.1.1˜2,6˜1˜8,12˜0.0˜14,18˜]triaconta-1(28), 2(30), 3,5,8(29), 9,11,24,26-nonaen-19-one], the “Cell Number: Average Total Cell Number” value was 1921, the “Sox17 Expression: Average Total Intensity” value is listed as 2.94E+07, the “Cell Number: % of positive control” value turned out to be 13.8% and the “Sox17 Expression: % of positive control” value amounted to 9.5%.

As for `CN1CCC(=O)NCCCc2cncc(c2)-c2ncnc(n2)Nc2cccc(c2)C1` [Compound 19, 14-Methyl-3,5,7,14,18,24,28-heptaazatetracyclo[20.3.1.1˜2,6˜0.1˜8,12˜]octacosa-1(26), 2(28), 3,5,8(27), 9,11,22,24-nonaen-17-one], the “Sox17 Expression, % of positive control” value is 69.5 % of positive control; the “Cell Number: Average Total Cell Number” value is recorded as 12569; the “Sox17 Expression: Average Total Intensity” value turned out to be 2.40E+08; the “Cell Number: % of positive control” value is listed as 83.8%. Further, the “Sox17 Expression: % of positive control” value amounted to 69.5%.

`CN1CCCC(=O)NCCCc2cncc(c2)-c2ncnc(n2)Nc2cccc(c2)C1` [Compound 20, 14-Methyl-3,5,7,14,19,25,29-heptaazatetracyclo[21.3.1.1˜2,6˜0.1˜8,12˜]nonacosa-1(27), 2(29), 3,5,8(28), 9,11,23,25-nonaen-18-one]: the “Cell Number: Average Total Cell Number” value was 2793, the “Sox17 Expression: Average Total Intensity” value is on record as 6.77E+06, the “Cell Number: % of positive control” value was found to be 17.6% and the “Sox17 Expression: % of positive control” value is given as 1.9%.

For the molecule `CN1CCC(=O)NCCCNc2cccc(c2)-c2ncnc(n2)Nc2cccc(c2)C1` [Compound 21, 14-Methyl-3,5,7,14,18,22,29-heptaazatetracyclo[21.3.1.1˜2,6˜0.1˜8,12˜]nonacosa-1(27), 2(29), 3,5,8(28), 9,11,23,25-nonaen-17-one], the “Cell Number: Average Total Cell Number” value is listed as 371, the “Sox17 Expression: Average Total Intensity” value came to 2.36E+06, the “Cell Number: % of positive control” value was 2.3% and the “Sox17 Expression: % of positive control” value is reported as 0.7%.

As for `O=C1NCCCc2cncc(c2)-c2ncnc(n2)Nc2cccc(c2)CN2CCC1CC2` [Compound 22, 1,8,10,12,16,22,30-Heptaazapentacyclo[22.2.2.1-3,7˜0.1˜9,13˜1-14,18˜]hentriaconta-3(31), 4,6,9(30), 10,12,14(29), 15,17-nonaen-23-one], the “Sox17 Expression, % of positive control” value is 27.4 % of positive control; the “Cell Number: Average Total Cell Number” value is on record as 6727; the “Sox17 Expression: Average Total Intensity” value is 1.06E+08; the “Cell Number: % of positive control” value amounted to 42.4%. Also, the “Sox17 Expression: % of positive control” value is reported as 29.8%.

For the molecule `O=C1CCN2CCN(CC2)Cc2cccc(c2)Nc2ncnc(n2)-c2cncc(c2)CCCN1` [Compound 23, 1,8,10,12,16,22,26,32-Octaazapentacyclo[24.2.2.1-3,7˜0.1˜9,13˜0.1˜14,18˜]tritriaconta-3(33), 4,6,9(32), 10,12,14(31), 15,17-nonaen-23-one], the “Sox17 Expression, % of positive control” value is recorded as 29.8 % of positive control; the “Cell Number: Average Total Cell Number” value worked out at 8758; the “Sox17 Expression: Average Total Intensity” value was 1.16E+08; the “Cell Number: % of positive control” value was found to be 58.4%. In addition, the “Sox17 Expression: % of positive control” value is 33.7%.

In the case of `CCN1CC(=O)NCCCc2cc(ccc2F)-c2ncnc(n2)Nc2cc(Cl)cc(c2)C1` [Compound 25, 10-Chloro-14-ethyl-22-fluoro-3,5,7,14,17,27-hexaazatetracyclo[19.3.1.1˜2,6˜0.1˜8,12˜]heptacosa-1(25), 2(27), 3,5,8(26), 9,11,21,23-nonaen-16-one], the “Cell Number: Average Total Cell Number” value was 3879, the “Sox17 Expression: Average Total Intensity” value worked out at 1.76E+07, the “Cell Number: % of positive control” value is 24.4% and the “Sox17 Expression: % of positive control” value is reported as 5.0%.

Regarding `O=C1CCN2CCN(CC2)Cc2cc(Cl)cc(c2)Nc2ncnc(n2)-c2cncc(c2)CCCN1` [Compound 34, 5-Chloro-1,8,10,12,16,22,26,32-octaazapentacyclo[24.2.2.1˜3.7˜0.1˜9,13˜0.1˜14.18˜]tritriaconta-3(33), 4,6,9(32), 10,12,14(31), 15,17-nonaen-23-one], the “Sox17 Expression, % of positive control” value was 68.0 % of positive control.

Regarding `CCN1CC(=O)NCCCc2cncc(c2)-c2ncnc(n2)Nc2cc(Cl)cc(c2)C1` [Compound 35, 10-Chloro-14-ethyl-3,5,7,14,17,23,27-heptaazatetracyclo[19.3.1.1˜2,6˜0.1˜8,12]Theptacosa-1(25), 2(27), 3,5,8(26), 9,11,21,23-nonaen-16-one], the “Sox17 Expression, % of positive control” value is 33.7 % of positive control; the “Cell Number: Average Total Cell Number” value is given as 7746; the “Sox17 Expression: Average Total Intensity” value was determined as 1.35E+08; the “Cell Number: % of positive control” value is reported as 48.8%. The “Sox17 Expression: % of positive control” value worked out at 38.0%.

For the molecule `O=C1NCCCc2cncc(c2)-c2ncnc(n2)Nc2cc(Cl)cc(c2)CN2CCCC1C2` (stereo not shown) [Compound 37, 10-Chloro-3,5,7,14,20,26,31-heptaazapentacyclo[22.3.1.1˜2,6˜0.1˜8,12˜0.1˜14,18˜]hentriaconta-1(28), 2(31), 3,5,8(30), 9,11,24,26-nonaen-19-one], the “Cell Number: Average Total Cell Number” value is given as 4187, the “Sox17 Expression: Average Total Intensity” value was 3.11E+07, the “Cell Number: % of positive control” value worked out at 26.4% and the “Sox17 Expression: % of positive control” value is 8.8%.

`C=CCN1CC(=O)NCCCc2cncc(c2)-c2ncnc(n2)Nc2cccc(c2)C1` [Compound 40, 14-Prop-2-en-1-yl-3,5,7,14,17,23,27-heptaazatetracyclo[19.3.1.1˜2.6˜0.1˜8,12˜]heptacosa-1(25), 2(27), 3,5,8(26), 9,11,21,23-nonaen-16-one]: the “Sox17 Expression, % of positive control” value is reported as 52.2 % of positive control.

The values are drawn from US9593305B2, “Differentiation of pluripotent stem cells” (Janssen Biotech, Inc., priority 2008, dated 2017).
